Experimental data from patent publication US8623921B2, “Bis(thio-hydrazide amide) formulation” (Synta Pharmaceuticals Corp., priority 2005, dated 2014).
“Also recorded” adds a separate entry of the source.

Legend:
[1] = DSC analysis of glass transition temperatures (Tg, Tg′); type: physicochemical; details: compound itself
Experimental: Tg′ and Tg were evaluated using a PYRIS Diamond DSC. Samples for Tg′ determination were prepared by loading 50 μL of sample into a 500 μL aluminum pan, then sealing the pan using the sealing press. The thermal program used to identify Tg′ (without annealing) was: • 1. Ramp from 20° C. to −50° C. at 10° C./min • 2. Hold at −50° C. for 4 minutes • 3. Ramp from −50° C. to 20° C. at 10° C./min The thermal program used to identify Tg′ that included an annealing step was: • 1. Ramp from 20° C. to −45° C. at 10° C./min • 2. Hold at −45° C. for 10 minutes • 3. Ramp from −45° C. to −8° C. at 10° C./min • 4. Hold at −8° C. for 1 hour • 5. Ramp from −8° C. to −70° C. at 10° C./min • 6. Hold at −70° C. for 5 minutes • 7. Ramp from −70° C. to 20° C. at 10° C./min Tg′ was taken to be the midpoint of the transition.
Freeze-dried samples used in the determination of […] ramped the temperature from 25° C. to 150° C. at 10° C./min.

[2] = Stability during freeze-drying by reverse-phase HPLC; type: physicochemical
Experimental: Reverse phase HPLC was used to quantify the potency and purity of; disodium 2-(N′-methyl-N′-thiobenzoyl-hydrazinocarbonyl)-1-(methyl-thiobenzoyl-hydrazono)-ethanolate following freeze-drying. The analysis was performed as detailed in the analytical method.

| Tg (glass transition temperature) [1] | main peak purity ([2]; RP-HPLC after freeze-drying, on average) | Compound | stability during freeze-drying ([2]; reverse-phase HPLC, all freeze-drying cycles tested) |
| --- | --- | --- | --- |
| −44.7 °C |  | CN(/N=C(\O)C/C(O)=N/N(C)C(=S)c1ccccc1)C(=S)c1ccccc1 [Structural Formula, (II)] |  |
|  | 97% | CN(NC(=O)CC(=O)NN(C)C(=S)c1ccccc1)C(=S)c1ccccc1 [disodium 2-(N′-methyl-N′-thiobenzoyl-hydrazinocarbonyl)-1-(methyl-thiobenzoyl-hydrazono)-ethanolate] | stable through all of the freeze-drying cycles tested, as no degradation products were detected; also recorded: did not adversely affect the stability |
